{"source": "patent US4254285A", "about": "“1-Hydroxymethyl-1-1-oxo prostane derivatives of the E and F series” (American Cyanamid Company, priority 1979, dated 1981)", "key": {"[1]": {"tested_on": "gastric secretion", "test": "Gastric anti-secretory test, Heidenhain pouch, histamine-stimulated", "format": "in vivo, dog", "settings": "oral 100 mg/Kg", "procedure": "Unanesthetized mongrel dogs weighing 10-15 Kg are used. The animals have a surgically prepared denervated (Heidenhain) pouch which drains by gravity through a titanium cannula. These animals are trained to stand quietly in a Pavlov support. Gastric secretion is stimulated at the lowest rate giving stable secretion (25-40% of maximal) with histamine acid phosphate, 30-50 μg/Kg/hr. Under such stimulation, a stable gastric secretory output can generally be maintained for a period of at least 3 hours.\nGastric juice is collected continuously during secretory studies and pooled into 15-minute collections. Determination of collection volume, pH and titratable acidity is performed. Acid is determined by titrating an aliquot of gastric sample with 0.1 N NaOH to pH 7.0 using an automatic titrator.\nDrugs are administered on a background of submaximal gastric secretory stimulation and the results compared with control secretory studies without the use of drug. Depending upon the duration of action of a particular drug, it may be possible for a single drug-secretory study to serve as its own control. The route of drug administration is oral administration into the main stomach.\nFor example, one of the PGE compounds of this invention 1,9-dioxo-11α,16-dihydroxy-16-methyl-1-hydroxymethyl-5-trans prostadiene on administration into the stomach of one of these dogs at a dose of […] gives the results shown hereinbelow in Table D. The data in Table D is the average of four tests in one dog."}, "[2]": {"format": "in vivo, rat", "procedure": "(§1) Male Wistar rats (Royal Hart, New Hampton, N.Y.), weighing 190-210 g are distributed among control and treatment groups (5 rats/group) and housed one rat per cage. During the 52 hour test period, the rats are permitted free access to food and drinking water for the first 33 hours but are fasted overnight prior to sacrifice. Indomethacin is suspended (4 mg/ml) in a 1.5% starch-phosphate buffer solution (SPBS). 1,9-dioxo-11α,16-dihydroxy-16-methyl-1-hydroxymethyl-13-transprostene is dissolved at 10 mg/ml in ethanol and then diluted in SPBS to 0.1 mg/ml or to a lower concentration as required. The indomethacin suspension is injected subcutaneously (10 mg/kg) and the prostaglandin suspension is given by gavage (0.5 mg/kg or less) b.i.d. on day 0 and 1. Rats receive only one dose of prostaglandin and indomethacin on day 2 and 6 hours later are killed with chloroform. The stomachs are dissected, opened along the greater curvature, and rinsed briefly in tap water. They are then spread, mucosal surface facing upward and pinned onto uniform size corks (2.5 inch diameter) individually numbered on the back. The identification number for each stomach is unknown to the investigator and the stomachs are randomly graded according to the following scheme:\n(§2) ^a Treatment is B.I.D. on days 0 and 1, and once on day 2, six hours\n(§3) prior to sacrifice for scoring."}, "[3]": {"tested_on": "indomethacin-induced intestinal ulcers", "format": "in vivo, rat", "procedure": "as §1\nIntestines are also removed and examined for the presence of ulcers, which are graded according to the scheme outlined below.\n1--Mucosa thin, petechial hemorrhage\n2--\"Blow-outs\", when intestine inflated with air\n3--Few ulcers. Gut more fragile than normal, tears along line of mesentery attachements when removed\n4--Many large perforating lesions. Adhesions. Gut hemorrhagic and very fragile. Tears readily and cannot be removed intact. Graded in situ.\nas §2, §3"}, "[4]": {"tested_on": "indomethacin-induced gastric ulcers", "format": "in vivo, rat", "procedure": "as §1\n1--Petechial hemorrhage, or pin-point ulcers\n2--One or two small ulcers or hemorrhagic erosions\n3--Many areas of hemorrhage erosion or ulcers, a few large\n4--Massive areas of hemorrhagic erosion or many ulcers, mainly large\nas §2, §3"}, "[5]": {"settings": "0 min., average of four tests in one dog"}, "[6]": {"settings": ".02 mg/kg P.O. with indomethacin 10 mg/kg subcut."}, "[7]": {"settings": ".1 mg/kg P.O. with indomethacin 10 mg/kg subcut."}, "[8]": {"settings": ".5 mg/kg P.O. with indomethacin 10 mg/kg subcut."}}, "note": "Read-outs that look alike come from different tables or passages of the source.", "data": [{"smiles": "CCCCC(C)(O)CC=CC1C(O)CC(=O)C1CC=CCCCC(=O)CO", "note": "(stereo not drawn) [1,9-dioxo-11α,16-dihydroxy-16-methyl-1-hydroxymethyl-5-cis-13-trans-prostadiene]", "values": [{"measurement": "Acid", "setting": "[1]; [5]", "result": 0.43, "unit": "meg/15 min."}, {"measurement": "Volume of gastric juice", "setting": "[1]; [5]", "result": 3.4, "unit": "mL"}, {"measurement": "Acid", "setting": "[1]; 15 min.", "result": 0.35, "unit": "meg/15 min."}, {"measurement": "Volume of gastric juice", "setting": "[1]; 15 min.", "result": 2.6, "unit": "mL"}, {"measurement": "Acid", "setting": "[1]; 30 min.", "result": 0.22, "unit": "meg/15 min."}, {"measurement": "Volume of gastric juice", "setting": "[1]; 30 min.", "result": 1.5, "unit": "mL"}, {"measurement": "Acid", "setting": "[1]; 45 min.", "result": 0.20, "unit": "meg/15 min."}, {"measurement": "Volume of gastric juice", "setting": "[1]; 45 min.", "result": 1.3, "unit": "mL"}, {"measurement": "Acid", "setting": "[1]; 60 min.", "result": 0.09, "unit": "meg/15 min."}, {"measurement": "Volume of gastric juice", "setting": "[1]; 60 min.", "result": 0.7, "unit": "mL"}, {"measurement": "Acid", "setting": "[1]; 75 min.", "result": 0.13, "unit": "meg/15 min."}, {"measurement": "Volume of gastric juice", "setting": "[1]; 75 min.", "result": 0.9, "unit": "mL"}, {"measurement": "Acid", "setting": "[1]; 90 min.", "result": 0.21, "unit": "meg/15 min."}, {"measurement": "Volume of gastric juice", "setting": "[1]; 90 min.", "result": 1.5, "unit": "mL"}, {"measurement": "Acid", "setting": "[1]; 105 min.", "result": 0.27, "unit": "meg/15 min."}, {"measurement": "Volume of gastric juice", "setting": "[1]; 105 min.", "result": 1.9, "unit": "mL"}, {"measurement": "Acid", "setting": "[1]; 120 min.", "result": 0.40, "unit": "meg/15 min."}, {"measurement": "Volume of gastric juice", "setting": "[1]; 120 min.", "result": 2.7, "unit": "mL"}]}, {"smiles": "CCCCC(C)(O)CC=CC1C(O)CC(=O)C1CCCCCCC(=O)CO", "note": "(stereo not drawn)", "values": [{"measurement": "Hematocrit (Mean ± S.E.M.)", "setting": "[2]; [6]", "result": "35.6 ± 1.9"}, {"measurement": "Hematocrit (Mean ± S.E.M.)", "setting": "[2]; [7]", "result": "41.1 ± 2.4"}, {"measurement": "Hematocrit (Mean ± S.E.M.)", "setting": "[2]; [8]", "result": "40.0 ± 1.4"}, {"measurement": "Intestinal Ulcer Score (Mean ± S.E.M.)", "setting": "[3]; [6]", "result": "3.5 ± 0.2"}, {"measurement": "Intestinal Ulcer Score (Mean ± S.E.M.)", "setting": "[3]; [7]", "result": "2.7 ± 0.2"}, {"measurement": "Intestinal Ulcer Score (Mean ± S.E.M.)", "setting": "[3]; [8]", "result": "2.0 ± 0.4"}, {"measurement": "Gastric Ulcer Score (Mean ± S.E.M.)", "setting": "[4]; [6]", "result": "1.9 ± 0.4"}, {"measurement": "Gastric Ulcer Score (Mean ± S.E.M.)", "setting": "[4]; [7]", "result": "1.7 ± 0.3"}, {"measurement": "Gastric Ulcer Score (Mean ± S.E.M.)", "setting": "[4]; [8]", "result": "2.1 ± 0.4"}]}]}
